Results taken from patent US9957311B2, “Surface-binding peptide” (TIKOMED AB, priority 2013, dated 2018).
Entries after “also recorded” stand apart in the source; their conditions may differ.

Key:
Assay type in all cases: cell-based
MC3T3-E1 cells = experiment: DNA quantification (cell number) of cells on peptide-coated Ti; conditions: 48 h culture on Ti coated with 50 μg/ml peptide, FIG. 9
Method: Under aseptic conditions, implants were immersed in a 3:7 (v/v) HNO3-DI water solution for 30 min at room temperature. Then, they were rinsed with milliQ water and placed in a covered milliQ water bath for 24 h. Implants were dried with N2 and were placed in a 96-well plates. Then, 200 μl of 50 μg/ml peptide solutions in PBS were added to each implant. Absorption took place for 24 h at 37° C. in a humidified atmosphere. After 24 h peptide solutions were collected and surfaces were washed with 200 μl of PBS and air-dried in order to perform cell experiments. The surfaces were denoted Ti (uncoated Ti), P1 (Ti coated with IP10-RGD), P2 (Ti coated with IP10mut-RGD), P3 (Ti coated with IP10-RGDmut) and P4 (Ti coated with IP10mut-RGDmu).
MC3T3-E1 cells were routinely cultured at 37° C. in a humidified atmosphere of 5% CO2, and maintained in α-minimum essential medium (α-MEM) supplemented with 10% fetal bovine serum (FBS) and antibiotics (50 IU penicillin/ml and 50 μg streptomycin/ml). 7.0×10^3 cells were seeded on the peptide-coated implants. Trypan blue stain was used to determine total and viable cell number. The same number of cells was cultured in parallel in plastic culture plates in the experiment. All experiments were performed after 15 passages of the MC3T3-E1 cells.
Culture media was removed from wells and plates were frozen at −80° C. until the experiment was carried out. At the day of analysis, 100 μl of distilled water were added to each well. Plates were incubated for 1 hour at room temperature. Again, plates were frozen at −80° C. to lysate cells. Plates were thawed until reaching room temperature and 100 μl of Hoechst 33258 at 20 μg/ml in THE buffer were added. Then, 200 μl aliquots were transferred to 96-well fluorescence plates and a spectrophotometer was set to record fluorescence. Relative fluorescence units were correlated with the cell number using a linear standard curve.

Integrin α8 (Itga8) = experiment: Real-time RT-PCR gene expression in MC3T3-E1 cells on peptide-coated Ti; conditions: after 72 h of cell culture, FIG. 11
Method: (§1) Under aseptic conditions, implants were immersed in a 3:7 (v/v) HNO3-DI water solution for 30 min at room temperature. Then, they were rinsed with milliQ water and placed in a covered milliQ water bath for 24 h. Implants were dried with N2 and were placed in a 96-well plates. Then, 200 μl of 50 μg/ml peptide solutions in PBS were added to each implant. Adsorption took place for 24 h at 37° C. in a humidified atmosphere. After 24 h peptide solutions were collected and surfaces were washed with 200 μl of PBS and air-dried in order to perform in vitro experiments. […]
(§2) Total RNA was isolated using Tripure, according to the manufacturer's protocol. Total RNA was quantified at 260 nm using a Nanodrop spectrophotometer. […]
(§3) Each reaction contained 7 μl Lightcycler-FastStart DNA MasterPLUS SYBR Green I (containing Fast Start Taq polymerase, reaction buffer, dNTPs mix, SYBRGreen I dye and MgCl2), 0.5 μM of each, the sense and the antisense specific primers and 3 μl of the cDNA dilution in a final volume of 10 μl. […] After each cycle, fluorescence was measured at 72° C. […]
(§4) All samples were normalized by the geometric mean of the expression levels of 18S rRNA and Gapdh and fold changes were related to day 1 of culture using the mathematical model described by Pfaffl, A new mathematical model for relative quantification in real-time RT-PCR, Nucleic Acids Research 2001, 29: e45: […]

integrin β3 (Itgb3) = experiment: as above; conditions: after 72 h of cell culture, FIG. 11
Method: as §1, §2, §3, §4

integrin β3 = experiment: Immunocytochemistry of integrin β3 in MC3T3-E1 cells on peptide-coated Ti; conditions: after 72 h of culture, FIG. 12
Method: Under aseptic conditions, implants were immersed in a 3:7 (v/v) HNO3-DI water solution for 30 min at room temperature. Then, they were rinsed with milliQ water and placed in a covered milliQ water bath for 24 h. Implants were dried with N2 and were placed in a 96-well plates. Then, 200 μl of 50 μg/ml peptide solutions in PBS were added to each implant. Adsorption took place for 24 h at 37° C. in a humidified atmosphere. After 24 h peptide solutions were collected and surfaces were washed with 200 μl of PBS and air-dried in order to perform in vitro experiments.
MC3T3-E1 cells were routinely cultured at 37° C. in a humidified atmosphere of 5% CO2, and maintained in α-MEM supplemented with 10% FBS and antibiotics (50 IU penicillin/ml and 50 μg streptomycin/ml). 7.0×10^3 cells were seeded on the peptide-coated implants. Trypan blue stain was used to determine total and viable cell number. The same number of cells was cultured in parallel in plastic culture plates in the experiment. All experiments were performed after 4 passages of the MC3T3-E1 cells.
Cells grown for 24 and 72 h on the surfaces were fixed for 15 min with 4% formaldehyde in PBS at room temperature. Cells were incubated with 0.1% Triton X-100 for 5 min, 1% bovine serum albumin for 30 min and then with anti-integrin beta-3 antibody for 1 h at 1:50 dilution in PBS. Then, a Cy3-conjugated goat anti-rabbit IgG was used as secondary antibody for 1.5 h at 1:200 dilution in PBS. For actin cytoskeleton visualization, cells were stained with phalloidin-FITC 5 μg/mL in PBS for 30 min. Cells were washed with PBS and coin-shaped samples were placed on slides. Finally, a drop of Fluoroshield with DAPI was added and cover glasses were mounted on the samples. Two samples of each group were used to perform the experiment and two images of each sample were taken with the confocal microscope (Leica DMI 4000B equipped with Leica TCS SPE laser system).

With “MKKKGEGGGGGGGGRGDS (IP-10 derived peptide connected to RGD motif via poly-G-linker) [Peptide P1, surface P1 = Ti coated with it]” the “number of cells (DNA quantification)” value (MC3T3-E1 cells) was “highest number of cells”, the “expression of Itga8 compared with uncoated surfaces” value (Integrin α8 (Itga8)) was “increased gene expression” and the “expression of Itgb3 compared with uncoated surfaces” value (integrin β3 (Itgb3)) was “increased gene expression”. For the same sequence, the “integrin β3 staining” value (integrin β3) was “allowed integrin β3 visualization; also recorded: highest integrin β3 staining; also recorded: allowed specific anti-integrin β3 staining”.
